This passage reports Decrease results from ChEMBL document CHEMBL1122998, “New antihistaminic theophylline or theobromine derivatives” (1985).

Assay [1] relates to Cavia porcellus. The assay can be described thus: Percentage decrease in bronchodilator activity against serotonin-induced bronchospasm reaction in guinea pig by intraveneous administration at dose 250 ug/kg. The assay is classed as functional.
For assay [2], the system named is Cavia porcellus. Description: Percent decrease in bronchodilator activity against histamine-induced bronchospasm reaction in guinea pig by intraveneous administration at dose 10.5 ug/kg.
Assay [3] has as its system Rattus norvegicus. Description: Percentage decrease in antiallergic activity against cutaneous reaction to histamine in rat, by oral administration at a dose of 10 mg/kg. The assay is classed as functional.
For assay [4], the system named is Cavia porcellus. Description: Percent decrease in bronchodilator activity against acetylcholine-induced bronchospasm reaction in guinea pig by intraveneous administration at dose 250 ug/kg. The assay is classed as functional.
Assay [5] relates to Rattus norvegicus. Description: Percent decrease in antiallergic activity by antigen/antibody reaction assay in rat by oral administration at a dose of 10 mg/kg. The assay is classed as functional.

Consider `COc1ccc(OCCCN2CCN(CCCn3cnc4c3c(=O)n(C)c(=O)n4C)CC2)cc1`, for which the Decrease in the assay with Cavia porcellus [1] amounted to 0%; in the assay on Cavia porcellus [2], 60%; in the assay with Rattus norvegicus [3] it was 0%; in the assay on Cavia porcellus [4] it was 25%; with Rattus norvegicus [5], 0%.
Consider `Cn1c(=O)c2c(ncn2CC(O)CN2CCN(CCCCOc3ccccc3)CC2)n(C)c1=O` (stereo unspecified), for which the Decrease in the assay with Cavia porcellus [1] was determined as 22%; in the assay on Cavia porcellus [2], 82%; in the assay on Rattus norvegicus [3], 0%; in the assay on Cavia porcellus [4], 45%; with Rattus norvegicus [5] it was 0%.
For the molecule `Cn1c(=O)c2c(ncn2CCC(O)CCN2CCN(CCCSc3ccccc3)CC2)n(C)c1=O` (stereo unspecified), the Decrease in the assay on Cavia porcellus [1] is recorded as 36%; in the assay on Cavia porcellus [2] it was 35%; with Rattus norvegicus [3], 38%; in the assay with Cavia porcellus [4] it was 20%; in the assay with Rattus norvegicus [5], 70%.
On the same counts, the results for `Cn1cnc2c1c(=O)n(CCCN1CCN(CCCOc3ccc(Cl)cc3)CC1)c(=O)n2C` are 30%, 14%, 12.5%, 18% and 13%.
Taken in the same sequence, the figures for `Cn1c(=O)c2c(ncn2CCCN2CCN(CCCSc3ccc(Cl)cc3)CC2)n(C)c1=O` were 0%, 25%, 0%, 0% and 0%.
On to `CN(C)CCC(c1ccc(Cl)cc1)c1ccccn1` (stereo unspecified) [CHLORPHENIRAMINE], for which the Decrease with Cavia porcellus [1] is given as 0%; in the assay with Cavia porcellus [2] it was 62%; in the assay on Rattus norvegicus [3] it was 15%; with Rattus norvegicus [5] it was 0%.
As for `Cc1ccc(SCCCN2CCN(CCCn3c(=O)c4c(ncn4C)n(C)c3=O)CC2)cc1`, the Decrease in the assay on Cavia porcellus [1] came out at 6%; with Cavia porcellus [2], 13%; in the assay on Rattus norvegicus [3] it was 6.5%; in the assay on Cavia porcellus [4], 24%; in the assay with Rattus norvegicus [5], 0%.
Taken in the same sequence, the figures for `Cn1c(=O)c2c(ncn2CCCN2CCN(CCOc3ccccc3)CC2)n(C)c1=O` were 0%, 70%, 0%, 15% and 0%.
On the same counts, the results for `Cn1c(=O)c2c(ncn2CCCN2CCN(CCCCOc3ccccc3)CC2)n(C)c1=O` are 26%, 80%, 0%, 35% and 0%.
As to `Cn1cnc2c1c(=O)n(CCCN1CCN(CC(O)CSc3ccccc3)CC1)c(=O)n2C` (stereo unspecified), the Decrease in the assay with Cavia porcellus [1] turned out to be 3%; with Cavia porcellus [2], 25%; in the assay on Rattus norvegicus [3] it was 0%; in the assay on Cavia porcellus [4] it was 2%; with Rattus norvegicus [5], 0%.
Turning to `Cn1cnc2c1c(=O)n(CC(O)CN1CCN(CCCOc3ccc(Cl)cc3)CC1)c(=O)n2C` (stereo unspecified), the Decrease in the assay with Cavia porcellus [1] is 11%; with Cavia porcellus [2] it was 19%; in the assay on Rattus norvegicus [3], 24%; in the assay with Cavia porcellus [4] it was 14%; in the assay on Rattus norvegicus [5], 23%.
For `Cn1cnc2c1c(=O)n(CCCN1CCN(CCCOc3ccccc3)CC1)c(=O)n2C`, the Decrease is given as 47% in the assay on Cavia porcellus [1]; 28% with Cavia porcellus [2]; 0% in the assay with Rattus norvegicus [3]; 30% in the assay on Cavia porcellus [4]; 23% in the assay on Rattus norvegicus [5].
Take `Cn1c(=O)c2c(ncn2CC(O)CN2CCN(CCOc3ccccc3)CC2)n(C)c1=O` (stereo unspecified): the Decrease in the assay on Cavia porcellus [1] is on record as 21%; in the assay with Cavia porcellus [2] it was 76%; in the assay with Rattus norvegicus [3] it was 56%; with Cavia porcellus [4], 0%; in the assay on Rattus norvegicus [5], 59%.
`Cn1c(=O)c2c(ncn2CC(=O)N2CCN(CCCSc3ccccc3)CC2)n(C)c1=O`: the Decrease with Cavia porcellus [1] is listed as 21%; with Cavia porcellus [2], 31%; in the assay on Rattus norvegicus [3], 10%; with Cavia porcellus [4], 16%; with Rattus norvegicus [5], 15%.
`Cn1c(=O)c2c(ncn2CC(O)CN2CCN(CCCOc3ccccc3)CC2)n(C)c1=O` (stereo unspecified): the Decrease in the assay on Cavia porcellus [1] was found to be 43%; in the assay on Cavia porcellus [2] it was 87%; in the assay with Rattus norvegicus [3] it was 78%; in the assay with Cavia porcellus [4], 23%; with Rattus norvegicus [5] it was 94%.
On the same counts, the results for `Cn1c(=O)c2c(ncn2CC(O)CN2CCCN(CCCSc3ccccc3)CC2)n(C)c1=O` (stereo unspecified) are 0%, 74%, 4%, 0% and 0%.
On the same counts, the results for `Cn1c(=O)c2c(ncn2CN2CCN(CCCSc3ccccc3)CC2)n(C)c1=O` are 0%, 9%, 0%, 0% and 0%.
Take `COc1cc(OCCCN2CCN(CCCn3cnc4c3c(=O)n(C)c(=O)n4C)CC2)cc(OC)c1OC`: the Decrease in the assay with Cavia porcellus [1], in the assay on Cavia porcellus [2] and in the assay with Cavia porcellus [4] was 0% throughout.
As for `CC(CN1c2ccccc2Sc2ccccc21)N(C)C` (stereo unspecified) [PROMETHAZINE], the Decrease in the assay with Cavia porcellus [1] worked out at 0%; in the assay with Cavia porcellus [2], 40%; in the assay on Rattus norvegicus [3], 58%; in the assay on Cavia porcellus [4], 0%; in the assay on Rattus norvegicus [5] it was 30%.
As for `Cn1c(=O)c2c(ncn2CCCN2CCN(CCCOc3ccccc3)CC2)n(C)c1=O`, the Decrease worked out at 35% in the assay with Cavia porcellus [1]; 88% in the assay with Cavia porcellus [2]; 28% in the assay on Rattus norvegicus [3]; 30% with Cavia porcellus [4]; 48% with Rattus norvegicus [5].
Regarding `Cn1cnc2c1c(=O)n(CCCN1CCN(CCCSc3ccc(Cl)cc3)CC1)c(=O)n2C`, the Decrease with Cavia porcellus [1] was found to be 47%; in the assay with Cavia porcellus [2] it was 0%; in the assay on Rattus norvegicus [3], 12%; with Cavia porcellus [4], 27%; in the assay with Rattus norvegicus [5], 17.5%.
As for `Cc1ccc(SCCCN2CCN(CC(O)Cn3c(=O)c4c(ncn4C)n(C)c3=O)CC2)cc1` (stereo unspecified), the Decrease with Cavia porcellus [1] was 42%; in the assay on Cavia porcellus [2] it was 10%; in the assay with Rattus norvegicus [3] it was 4%; in the assay with Cavia porcellus [4], 29%; with Rattus norvegicus [5] it was 11%.
On to `Cn1c(=O)c2c(ncn2CCCN2CCN(CCCOc3ccc(Cl)cc3)CC2)n(C)c1=O`, for which the Decrease with Cavia porcellus [1] was 0%; with Cavia porcellus [2] it was 30%; in the assay on Rattus norvegicus [3], 0%; in the assay on Cavia porcellus [4], 0%; in the assay on Rattus norvegicus [5] it was 0%.
Regarding `Cc1ccc(SCCCN2CCN(CCCn3cnc4c3c(=O)n(C)c(=O)n4C)CC2)cc1`, the Decrease in the assay on Cavia porcellus [1] worked out at 24%; in the assay on Cavia porcellus [2] it was 15%; with Rattus norvegicus [3] it was 0%; in the assay on Cavia porcellus [4], 35%; in the assay with Rattus norvegicus [5], 0%.
As for `CN(CCCSc1ccccc1)CCN(C)CCCn1cnc2c1c(=O)n(C)c(=O)n2C`, the Decrease in the assay with Cavia porcellus [1] was 50%; with Cavia porcellus [2] it was 2%; in the assay on Cavia porcellus [4], 12%.
As for `COc1ccc(SCCCN2CCN(CCCn3cnc4c3c(=O)n(C)c(=O)n4C)CC2)cc1`, the Decrease with Cavia porcellus [1] was found to be 0%; with Cavia porcellus [2] it was 53%; with Cavia porcellus [4], 0%.
As for `CN1CCC(=C2c3ccccc3CC(=O)c3sccc32)CC1` [KETOTIFEN], the Decrease in the assay on Cavia porcellus [2] is 10%; with Rattus norvegicus [3] it was 90%; in the assay on Rattus norvegicus [5], 64%.
